Assay results reported in US6900184B2, “Compositions containing pipercillin and tazobactam useful for injection” (Wyeth Holdings Corporation, priority 2003, dated 2005).

Test: Light obscuration particulate testing (HIAC-3000, based on USP 788), at time zero and 24 hours
Assay type: physicochemical
Details: in Zosyn solutions, summary of Table 1
Description: Samples are prepared according to the compositions described in Table I. […] The fluid in the bag is mixed with gentle inversions for about 30 seconds. • The bags are labeled with identity and reconstitution time. • When added, aminoglycosides are added immediately. The fluid in the bag is mixed with gentle inversions for about 30 seconds. • A 50 ml sample is drawn with a 60 cc syringe fitted with a 21-gauge needle. • A clean, particle free vial is rinsed with water for injection, and then filled with about 45 ml of the sample. HIAC testing is performed immediately. • Into a suitably sized sample vial, a 3 ml sample is prepared for HPLC testing. HPLC testing is begun within an hour of sample preparation (Table 1). The remainder of the Zosyn® admixture samples (about 50 ml) are stored in a closed cabinet in the laboratory, at ambient temperature and tested again 24 hours later (Table 1). Light obscuration testing is performed using a HIAC-3000. A testing method, based on USP 788 is followed for the analysis. (See TABLE I) The data is reported on a particle per ml basis. […] The same sample was resampled and analyzed 24 hours after the first test. A summary of the HIAC data is provided as Table I.

SMILES: NCC[C@H](O)C(=O)N[C@@H]1C[C@H](N)[C@@H](O[C@H]2O[C@H](CN)[C@@H](O)[C@H](O)[C@H]2O)[C@H](O)[C@H]1O[C@H]1O[C@H](CO)[C@@H](O)[C@H](N)[C@H]1O [amikacin]
- effect of added aminoglycoside on number of particles generated: increases the number of particles generated in 24 hours

SMILES: O=C(O)CN(CCN(CC(=O)O)CC(=O)O)CC(=O)O [EDTA, ethylene diamine tetraacetic acid]
- effect of added EDTA (edetate disodium dihydrate) on number of particles generated: significantly reduces the number of particles generated in 24 hours
